Reference: patent US20230372364A1, “METHOD OF TREATING GABA MEDIATED DISORDERS” (Eliem Therapeutics (UK) Ltd, priority 2020, published 2023)

Assays:
rats = test: Repeat-dose toxicity up to four weeks, rats; assay type: in vivo, rat
Method: The no-observed-adverse-effect-level doses were 7.5/mg/kg/day and 6 mg/kg/day in rats and dogs, respectively.
(§1) Justification for Dose—Based on the nonclinical toxicology data, there is not an unreasonable risk of adverse effects. Using the FDA guidance “Estimating the Maximum Safe Starting Dose in Initial Clinical Trials for Therapeutics in Adult Healthy Volunteers” (July, 2005), the calculated human equivalent dose would be 1/2 mg/kg/day or 3/24 mg/kg/day, respectively, based on the 28-day rat no-observed-adverse-effect-level dose of 7.5 mg/kg/day or the 28-day dog no-observed-adverse-effect-level dose of 6 mg/kg/day, respectively. For both species the no-observed-adverse-effect-level dose was the highest dose tested. For a 60 kg participant, this would result in a maximum safe starting dose of (human equivalent dose/10) of 7.2 mg/day or 19/6 mg/day. The starting doses in this Phase 1 study are 5 mg, equivalent to […] for a 60 kg participant. […] These anticipated Cmax and AUC values are ˜80- and 50-fold lower, respectively, than that observed at the no-observed-adverse-effect-level dose in dogs.

[1] = Human equivalent dose and allometric scaling of anticipated human exposure; details: 60 kg participant
Method: as §1

[2] = Further pharmacokinetic analysis of Phase 1 human dosing exposure studies; assay type: in vivo
kappa opioid receptor = kappa opioid receptor (Homo sapiens, UniProt P41145); test: Activity at the kappa opioid receptor; details: previously shown
Text: (§2) The compound of Formula (I) is believed to have binding affinity at the GABA-gated Cl-channel, the kappa opioid receptor, the 5-HT2A receptor, and the androgen receptor. The compound of Formula (I) has previously shown activity at all 18 GABAA receptor channels and the kappa opioid receptor. The compound of Formula (I) had previously shown no activity at the 5-HT2A receptor. Activity at the androgen receptor is has not yet been well studied.

5-HT2A receptor = 5-HT2A receptor (Homo sapiens, UniProt P28223); test: Activity at the 5-HT2A receptor; details: previously shown
Text: as §2

[3] = system: rodent models of seizure, anxiety, depression and EEG biomarker; test: Preclinical models of depression, anxiety, seizure and EEG (overall effective dose); assay type: in vivo
human subjects [4] = test: Phase 1 study of safety, tolerability and pharmacokinetics in healthy volunteers (Example 1); assay type: in vivo; details: Phase 1 study participants
Text: The study is a first in-human study of ATN-10155 is designed to assess the safety, tolerability, and pharmacokinetics of ATN-10155 following administration of two phases: a single ascending dose phase and multiple ascending dose phase. The study is a randomized, double-blind study with participants in each cohort receiving active drug or matching placebo. The study evaluates the safety, tolerability, and pharmacokinetics of ATN-10155 following the single and multiple dose phases in healthy volunteers. […]
Single Ascending Dose—the Single Ascending Dose portion comprises five or more cohorts with eight participants in each cohort, 6 actively receiving ATN-10155 and 2 receiving a placebo. […] Sentinel dosing is not employed once the maximum tolerated dose is determined or if an intermediate cohort is added that that is lower than the dose of the previous cohort. […]
Safety and tolerability—A physical and neurological exam is done as part of the eligibility evaluation at screening. […] Systolic blood pressure, diastolic blood pressure, pulse, and peripheral arterial oxygen saturation (pulse oximetry) is recorded prior to every PK blood sample (including pre-dose) in the single ascending dose portion. […] If a post-menopausal female, follicle stimulating hormone levels is measured at screening. […]

[5] = In vitro genetic toxicology studies; details: two in vitro studies
human subjects [6] = test: Single ascending oral dose safety and tolerability in humans; assay type: in vivo
[7] = system: all 18 GABAA receptor channels; test: Activity at GABAA receptor channels; details: previously shown
Text: as §2

Chain of 5-HT2A receptor (P28223 whole entry, looked up): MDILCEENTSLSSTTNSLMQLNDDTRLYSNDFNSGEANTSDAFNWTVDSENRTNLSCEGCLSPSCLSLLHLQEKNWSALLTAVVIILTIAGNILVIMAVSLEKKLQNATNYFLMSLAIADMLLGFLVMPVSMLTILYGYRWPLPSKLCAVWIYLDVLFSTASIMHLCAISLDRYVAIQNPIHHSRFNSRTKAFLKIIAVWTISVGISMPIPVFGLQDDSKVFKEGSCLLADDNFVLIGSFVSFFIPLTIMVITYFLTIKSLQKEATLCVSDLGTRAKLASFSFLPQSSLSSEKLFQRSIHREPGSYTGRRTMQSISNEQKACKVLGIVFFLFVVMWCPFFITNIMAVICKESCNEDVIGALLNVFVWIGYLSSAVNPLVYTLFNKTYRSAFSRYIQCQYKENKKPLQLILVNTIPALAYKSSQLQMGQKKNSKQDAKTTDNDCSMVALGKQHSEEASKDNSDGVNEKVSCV
Chain of kappa opioid receptor (P41145 whole entry): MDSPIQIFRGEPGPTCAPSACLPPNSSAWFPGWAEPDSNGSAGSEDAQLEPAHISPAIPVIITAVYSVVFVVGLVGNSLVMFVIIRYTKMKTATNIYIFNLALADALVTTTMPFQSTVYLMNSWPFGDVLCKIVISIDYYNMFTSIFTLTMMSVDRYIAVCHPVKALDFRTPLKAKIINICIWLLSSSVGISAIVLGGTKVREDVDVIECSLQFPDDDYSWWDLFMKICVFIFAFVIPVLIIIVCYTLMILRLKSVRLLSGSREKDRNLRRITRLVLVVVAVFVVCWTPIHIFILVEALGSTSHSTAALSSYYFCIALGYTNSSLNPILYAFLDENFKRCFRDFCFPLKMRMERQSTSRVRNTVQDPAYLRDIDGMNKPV

In the case of `C[C@@]1(O)CC[C@@]2(C)[C@@H](CC[C@@H]3[C@@H]2CC[C@]2(C)[C@@H](C(=O)Cn4cc(C#N)cn4)CC[C@@H]32)C1` [CV-10155, 1-[2-[(3R,5S,8R,9S,10S,13S,14S,17S)-3-hydroxy-3,10,13-trimethyl-1,2,4,5,6,7,8,9,11,12,14,15,16,17-tetradecahydrocyclopenta[a]phenanthren-17-yl]-2-oxoethyl]pyrazole-4-carbonitrile], the “primary effects observed in repeat-dose toxicity” value (rats; mid and high dose levels, species not specified (rats and dogs program)) is reported as “ataxia and prostration”, the no-observed-adverse-effect-level dose (rats; rats, 28-day repeat dose) is reported as 7.5 mg/kg/day and the “maximum safe starting dose (human equivalent dose/10)” value ([1]; from dog NOAEL) is reported as 19/6. The “maximum safe starting dose (human equivalent dose/10)” value ([1]; from rat NOAEL) was 7.2 mg/day, the elimination in urine [2] was < 1 % of the dose and the “accumulation ratio based on AUC” value ([2]; once daily administration) was “approximately 2”. For the same molecule, the “daily dose by which steady state was achieved” value ([2]; once daily administration, visual inspection of mean concentrations) was “eighth”, the Tmax ([2]; plasma, Phase 1, after oral administration) was 3 to 4 h and the half-life ([2]; plasma, oral, Phase 1, both after single and repeat administration, read-out: terminal half-life (converted)) was roughly 40 h. For the same molecule, the “activity at the kappa opioid receptor” value (kappa opioid receptor) was “activity”, the “activity at the 5-HT2A receptor” value (5-HT2A receptor) was “no activity” and the “dose from which robust efficacy was observed” value ([3]; in most models) was no less than 3 mg/kg. The “minimal effective dose (MED)” value ([3]; preclinical models of depression, anxiety, seizure) was 1 mg/kg, the serious adverse events (human subjects [4]) was “minimal to no serious adverse events” and the severe adverse events (human subjects [4]) was “minimal to no severe adverse events”. The genetic toxicology findings [5] was “no positive findings”, the dose-limiting adverse event (human subjects [6]) was “Ataxia” and the “SAD MTD” value (human subjects [6]; single ascending dose) was “ETX-155 135 mg SAD MTD”. For the same molecule, the “adverse events observed at 200 mg” value (human subjects [6]; single oral dose 200 mg, fasted) was “ataxia, tremor and tachycardia”, the “most common adverse events” value (human subjects [6]; single oral dose, mild to moderate, only observed at the highest doses) was “Dizziness and somnolence” and the dose-limiting adverse events (human subjects [6]; single oral dose, range of 5-135 mg) was “No dose-limiting adverse events were observed”. The “activity at all 18 GABAA receptor channels” value [7] was “activity”.
